Reference: EP0114002B1, “Benzothiopyrano(4,3,2,-cd)indazoles, their pharmaceutical compositions and methods for their production” (WARNER-LAMBERT COMPANY, priority 1983, dated 1984)
Read-outs that look alike come from different tables or passages of the source.

Experiments:
[1] = system: Streptococcus faecalis 05045; test: in vitro antibacterial/antifungal (ABF) agar-disk diffusion test; assay type: cell-based; conditions: Enterococcus faecalis, AM-09 medium, read-out: ABF Zone Diameter (cont. in mg/ml) S. Fae-calis; for zone of inhibition at 3000 µg/mL: 3 mg/ml; for zone of inhibition at 1000 µg/mL: 1 mg/ml
Description: (§1) Still another test protocol is the in vitro antibacterial/antifungal (ABF) test. Compounds are tested for antimicrobial activity in an agar-disk diffusion assay, a standard microbiological technique for testing antibiotics'. After incubation of each culture with a test compound, a zone of inhibition is determined. The zone diameter (mm) of active compounds ranges from a minimum of 13.5 mm to as high as 60 mm, with a greater diameter reflecting higher activity. For convenience, values are reported for two gram-negative bacteria (Aerobacter aerogenes 0126 and Escherichia coli 04863), two gram-positive bacteria (Bacillus subtilis 04555 and Streptococcus faecalis 05045 utilizing AM-09 medium), and one mycelial fungus (Penicillium avellaneum M2988).

[2] = system: Aerobacter aerogenes 0126; test: as above; assay type: cell-based; conditions: Klebsiella aerogenes, read-out: ABF Zone Diameter (cont. in mg/ml) A. Aero-genes; for zone of inhibition at 100 µg/mL: 0.1 mg/ml; for zone of inhibition at 500 µg/mL: 0.5 mg/ml; for zone of inhibition at 1000 µg/mL: 1 mg/ml; for zone of inhibition at 3000 µg/mL: 3 mg/ml
Description: as §1

[3] = system: Bacillus subtilis 04555; test: as above; assay type: cell-based; conditions: read-out: ABF Zone Diameter (cont. in mg/ml) B. Sub-tilis; for zone of inhibition at 500 µg/mL: 0.5 mg/ml; for zone of inhibition at 3000 µg/mL: 3 mg/ml; for zone of inhibition at 1000 µg/mL: 1 mg/ml
Description: as §1

[4] = system: Penicillium avellaneum M2988; test: as above; assay type: cell-based; conditions: Hamigera avellanea, read-out: ABF Zone Diameter (cont. in mg/ml) P. Avell-aneum; for zone of inhibition at 3000 µg/mL: 3 mg/ml
Description: as §1

[5] = system: Escherichia coli 04863; test: as above; assay type: cell-based; conditions: read-out: ABF Zone Diameter (cont. in mg/ml) E. Coli; for zone of inhibition at 100 µg/mL: 0.1 mg/ml; for zone of inhibition at 3000 µg/mL: 3 mg/ml
Description: as §1

[6] = system: L1210 cells; test: L1210 murine leukemia cell growth inhibition in vitro; assay type: cell-based; conditions: Mus musculus, 72 h
Description: Another test protocol uses L1210 cells, a murine leukemia cell line, grown in RPMI 1640 supplemented with 5% fetal bovine serum and gentamicin ([…]). Drug dilutions are prepared in the appropriate solvent and 20 µl of each dilution are added to 24-well Linbro tissue culture plates, followed by the addition of 2.0 ml of cell suspension containing 3 x 10^4 cells per ml. Solvent and medium controls are included in each test. After incubation at 37°C forthree days in 5% C02, the contents of each well are removed and the cells counted in a ZBI Coulter counter. Percent growth are calculated relative to the controls and the levels of drug activity are expressed as ID50 in moles per liter.

[7] = system: HCT-8 cells; test: in vitro proliferating human colon adenocarcinoma (HCA) cell screen; assay type: cell-based
Description: One test protocol is the in vitro proliferating human colon adenocarcinoma (HCA) cell screen. In this test, HCT-8 cells (HCA cell line received from Yale University) are trypsinized using trypsin-EDTA. A single cell suspension is achieved by passing the cells through a 26 gauge needle with a 20 cc syringe. A cell suspension is prepared using RPMI 1640 + 10% FCS + 50) g/ml gentamicin sulfate with a cell concentration of approximately 30,000 cells/ml. The cell suspension is dispensed in Linbro 24-well plates; 1 ml/well. The plates are incubated for approximately 48 hours at 37°C in a 5% C02 atmosphere. At this time test compounds are added in the appropriate concentration. Five µl of the 200 µg/ml stock solution is added to each well in primary test. Ten µl of the appropirate dilution is added to each well for a titration test. The plates are re-incubated an additional 60 to 65 hours at 37°C in a 5% C02 atmosphere. The cells are lysed using a mix of cationic surfactant, glacial acetic acid, and sodium chloride. Two ml of the lysed cell suspension from each well is added to 8 ml of diluent. The number of nuclei is determined using a Coulter counter (ZBI model), and a percent growth for each drug concentration is calculated. From this, an ID50 molar concentration of a compound (that results in 50% inhibition of growth) is determined.

[8] = system: lymphocytic leukemia P388; test: in vivo lymphocytic leukemia P388 test; design: species or system mice; conditions: Mus musculus, P388, ip, 120 h, read-out: P388 in vivo T/C × 100; for response vs control in vivo at 6.25 mg/kg: Dose 6.25 mg/kg intraperitoneally once daily for five days; for response vs control in vivo at 12.5 mg/kg: Dose 12.50 mg/kg intraperitoneally once daily for five days; for response vs control in vivo at 25 mg/kg: Dose 25.00 mg/kg intraperitoneally once daily for five days; for response vs control in vivo at 50 mg/kg: Dose 50.00 mg/kg intraperitoneally once daily for five days
Description: Another test protocol is the in vivo lymphocytic leukemia P388 test. The animals used are either male or female CD2F, mice. There are six or seven animals per test group. The tumor transplant is by intraperitoneal injection of dilute ascitic fluid containing cells of lymphocytic leukemia P388. The test compounds are administered intraperitoneally once daily for five consecutive days at various doses following tumor inoculation. The animals are weighed and survivors are recorded on a regular basis for 30 days. A compound is designated "toxic" if, at a given dose, all animals died prior to four days after the first injection of drug. A ratio of survival time for treated (T)/control (C) animals is calculated. A criterion for efficacy is a ratio T/C times 100 greater than or equal to 125. See Cancer Chemotherapy Reports, Part 3, 3; 1 (1972) for a comprehensive discussion of the protocol.

[9] = Table 1, three days incubation, 50% inhibition of growth, read-out: L1210 in vitro ID50
[10] = Table 1, 60 to 65 hours with compound, 50% inhibition of growth, read-out: HCA—3 in vitro ID50

IC50 [6, 9] [nM] | IC50 [7, 10] [nM] | Compound | zone of inhibition at 500 µg/mL [3] [mm] | zone of inhibition at 3000 µg/mL [4] [mm] | zone of inhibition at 100 µg/mL [5] [mm] | response vs control in vivo at 12.5 mg/kg [8] [%] | response vs control in vivo at 25 mg/kg [8] [%] | zone of inhibition at 3000 µg/mL [1] [mm] | zone of inhibition at 500 µg/mL [2] [mm] | zone of inhibition at 3000 µg/mL [3] [mm] | zone of inhibition at 3000 µg/mL [2] [mm] | response vs control in vivo at 50 mg/kg [8] [%] | zone of inhibition at 3000 µg/mL [5] [mm] | other results
20 | 100 | O=[N+]([O-])c1ccc2c3c(nn2CCNCCO)-c2ccccc2Sc13 [CH2CH2NHCH2CH2OH / NO2, 2-[[2-(5-Nitro-2H[1]benzothiopyrano[4,3,2-cd]indazol-2-yl)ethyl]amino]ethano] | 18 | 0 | 16 | 150 | 197 | – | – | – | – | – | – | zone of inhibition at 500 µg/mL ([1]; 0.5 mg/ml): 15 mm; zone of inhibition at 100 µg/mL [2]: 16 mm; response vs control in vivo at 6.25 mg/kg [8]: 148%
79 | 97 | CN(C)CCn1nc2c3c(c([N+](=O)[O-])ccc31)Sc1ccccc1-2 [CH2CH2N(CH3)2 / NO2, N,N dimethyl-5-nitro-2H[1]benzothiopyrano[4,3,2-cd]indazole-2-ethanamine] | – | – | 14 | 158 | – | 15 | – | 15 | – | – | – | zone of inhibition at 1000 µg/mL [2]: 15 mm; zone of inhibition at 100 µg/mL ([4]; 0.1 mg/ml): 15 mm
56 | 200 | CCN(CC)CCn1nc2c3c(c([N+](=O)[O-])ccc31)Sc1ccccc1-2 [CH2CH2N(CH2H5)2 / HO2, N,N-Diethyl-5-nitro-2H[1]benzothiopyrano[4,3,2-cd]-indazole-2-ethanamine] | – | 15 | – | – | 138 | 14 | – | 14 | 0 | 170 | – | zone of inhibition at 1000 µg/mL ([5]; 1 mg/ml): 14 mm
570 | 1400 | O=C1OCCN1CCNc1ccc2c3c(nn2CCNCCO)-c2ccccc2Sc13 [CH2CH2NHCH0H2OH /] | – | 0 | – | – | – | – | – | – | – | – | 15 | zone of inhibition at 1000 µg/mL [1]: 17 mm; zone of inhibition at 1000 µg/mL [2]: 14 mm; zone of inhibition at 1000 µg/mL [3]: 16 mm
24 | 88 | NCCn1nc2c3c(c(NCCNCCO)ccc31)Sc1ccccc1-2 [CH2CH2NH2 / NHCH2NHCH2CH2OH, 2-[[2-[[2-(2-aminoethyl)-2H[1]benzothiopyrano[4,3,2-cd]indazol-5-yl]amino]ethyl]amino]ethanol] | 15 | 0 | – | – | – | 0 | 15 | – | – | – | 0 | –

Second part, the compound before the results:

Compound | IC50 [6, 9] [nM] | IC50 [7, 10] [nM] | zone of inhibition at 500 µg/mL [3] [mm] | zone of inhibition at 3000 µg/mL [4] [mm] | zone of inhibition at 100 µg/mL [5] [mm] | response vs control in vivo at 12.5 mg/kg [8] [%] | response vs control in vivo at 25 mg/kg [8] [%] | zone of inhibition at 3000 µg/mL [1] [mm] | zone of inhibition at 500 µg/mL [2] [mm] | zone of inhibition at 3000 µg/mL [3] [mm] | zone of inhibition at 3000 µg/mL [2] [mm] | response vs control in vivo at 50 mg/kg [8] [%] | zone of inhibition at 3000 µg/mL [5] [mm] | other results
CCN(CC)CCNc1ccc2c3c(nn2CCN(CC)CC)-c2ccccc2Sc13 [CH2CH2N(C2H5)2 / NHCH2CH2N(C2H5)2, 5-[[2-(Diethylamino)ethyl]amino]-N,N-diethyl-2H[1]-benzothiopyrano[4,3,2-cd]indazofe-2-ethanamine] | 140 | 450 | – | 17 | 18 | – | 155 | 15 | 14 | – | – | – | – | zone of inhibition at 100 µg/mL ([3]; 0.1 mg/ml): 15 mm
CN(C)CCn1nc2c3c(c(N)ccc31)Sc1ccccc1-2 [CH2CH2N(CH2)2 / NH2] | 80 | 280 | 15 | – | – | 160 | – | – | – | – | – | – | – | zone of inhibition at 1000 µg/mL [1]: 20 mm; zone of inhibition at 100 µg/mL [2]: 14 mm; zone of inhibition at 500 µg/mL ([4]; 0.5 mg/ml): 17 mm; zone of inhibition at 500 µg/mL ([5]; 0.5 mg/ml): 16 mm; response vs control in vivo at 6.25 mg/kg [8]: 126%
CN(C)CCCn1nc2c3c(c(N)ccc31)Sc1ccccc1-2 [CH2CH2CH2N(CH3)2 / NH2] | 2000 | 1800 | – | 16 | – | – | – | 15 | 16 | 0 | – | 121 | 15 | response vs control in vivo at 100 mg/kg ([8]; Dose 100.00 mg/kg intraperitoneally once daily for five days): 182%; response vs control in vivo at 200 mg/kg ([8]; Dose 200.00 mg/kg intraperitoneally once daily for five days, survival time treated/control): 169%
CCN(CC)CCn1nc2c3c(c(N=CN(C)C)ccc31)Sc1ccccc1-2 [CH2CH2N(C2H5)2 / N=CHN(CH3)2, N'-[2-(2-(Diethylamino)ethyl]-2H[1]benzothiopyrano[4,3,2-cd]indazol-5-yl]-N,N-dimethyl-methanimidamide] | 100 | 240 | – | 16 | – | – | 145 | 0 | – | – | 0 | 206 | 0 | zone of inhibition at 1000 µg/mL [3]: 16 mm
CCN(CC)CCn1nc2c3c(c(N)ccc31)Sc1c(O)ccc(O)c1-2 [CH2CH2N(C2H5)2 / NH2 / 7,10-(OH)2, 5-amino-2-[2-(diethylamino)ethyl]-2H[1]-benzothiopyrano[4;3,2-cd]indazole-7,10-diol] | – | – | – | 0 | – | – | – | 19 | – | 0 | 0 | – | 0 | IC50 ([6]; Table 2, three days incubation, read-out: L1210 in vitro IC50): > 2200 nM; IC50 ([7]; Table 2, 60 to 65 hours with compound, read-out: HCA—3 in vitro IC50): > 2200 nM
